Here are results for 24 compounds from the Kinase Knowledgebase extract (Sharma et al. 2016).

What is called IC50 is the concentration that inhibits the measured activity by half. A lower IC50 goes with greater potency.

One experiment deals with PIK3CA (human) (UniProt P42336). In words: Inhibition of PIK3CA Kinase Activity.
The target of experiment [1] is PIK3CA (human), P42336 [Antiproliferation of PI3K Mutated BT20 Cells]. In words: Cell-Based Assay.
Sequence of PIK3CA (human), P42336 [Antiproliferation of PI3K Mutated BT20 Cells] (P42336 whole entry, looked up, change not shown): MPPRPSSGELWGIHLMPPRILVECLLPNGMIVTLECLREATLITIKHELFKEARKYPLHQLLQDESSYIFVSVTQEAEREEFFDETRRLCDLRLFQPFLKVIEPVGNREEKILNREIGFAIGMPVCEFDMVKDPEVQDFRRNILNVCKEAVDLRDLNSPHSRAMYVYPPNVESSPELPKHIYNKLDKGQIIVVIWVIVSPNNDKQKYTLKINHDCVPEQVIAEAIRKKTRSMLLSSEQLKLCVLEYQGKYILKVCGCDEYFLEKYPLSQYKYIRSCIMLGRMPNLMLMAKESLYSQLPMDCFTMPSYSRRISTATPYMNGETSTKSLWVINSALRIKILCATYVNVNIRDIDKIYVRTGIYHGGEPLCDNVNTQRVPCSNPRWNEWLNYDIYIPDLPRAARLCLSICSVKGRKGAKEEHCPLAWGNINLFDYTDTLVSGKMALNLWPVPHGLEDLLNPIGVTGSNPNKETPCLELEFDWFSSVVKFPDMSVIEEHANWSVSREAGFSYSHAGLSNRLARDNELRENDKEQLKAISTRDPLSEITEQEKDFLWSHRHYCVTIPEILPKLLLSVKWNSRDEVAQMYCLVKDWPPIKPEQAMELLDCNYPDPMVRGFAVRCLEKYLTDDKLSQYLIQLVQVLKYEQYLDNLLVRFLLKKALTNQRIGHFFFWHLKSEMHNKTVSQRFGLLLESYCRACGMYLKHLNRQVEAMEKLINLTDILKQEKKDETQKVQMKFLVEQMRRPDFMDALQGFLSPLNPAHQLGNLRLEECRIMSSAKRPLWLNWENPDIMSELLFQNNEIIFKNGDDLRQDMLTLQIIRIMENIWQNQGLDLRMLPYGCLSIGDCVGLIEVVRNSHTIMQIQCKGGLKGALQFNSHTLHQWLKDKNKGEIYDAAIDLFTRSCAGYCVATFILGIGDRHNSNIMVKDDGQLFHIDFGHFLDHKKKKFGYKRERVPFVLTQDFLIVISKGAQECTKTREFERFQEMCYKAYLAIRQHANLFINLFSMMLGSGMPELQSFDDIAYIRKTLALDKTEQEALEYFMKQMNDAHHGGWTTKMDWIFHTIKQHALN

Sequence of PIK3CA (human) (P42336 whole entry, looked up): as the sequence (P42336 whole entry, looked up, change not shown) above

Regarding `COc1ccc(-c2cc3c(C)nc(N)nc3n(C3CCC(=O)CC3)c2=O)cn1`, the concentration for half-maximal inhibition (IC50) on PIK3CA (human) was 4.3 nM; in experiment [1], 19.3 nM.
In the same order, the values of `Cc1nc(N)nc2c1cc(-c1cnn(CCO)c1)c(=O)n2C1CCCC1` are 45 nM and 495 nM.
Consider `CCNc1nc(C)c2cc(-c3cnc(OC)nc3)c(=O)n([C@H]3CC[C@H](O)CC3)c2n1`, for which the IC50 on PIK3CA (human) worked out at 1.59 nM; in experiment [1], 20.6 nM.
On to `CNc1nc(C)c2cc(-c3cnc4[nH]ccc4c3)c(=O)n(C3CCCC3)c2n1`, for which the figures for the half-maximal inhibitory concentration (IC50) (against PIK3CA (human); in experiment [1]) were 0.75 nM and 3.82 nM, respectively.
The like results for `Cc1nc(N)nc2c1cc(C(=O)Nc1ccn[nH]1)c(=O)n2C(C)C` were, in that order, 2.9 nM and 30.5 nM.
In the same order, the values of `Cc1nc(N)nc2c1cc(-c1cccnc1N)c(=O)n2C1CCCC1` are 1430 nM and 9010 nM.
As for `COc1ncc(-c2cc3c(C)nc(N)nc3n([C@H]3C[C@H](OCC(N)=O)C3)c2=O)cn1`, the results for the IC50 (at PIK3CA (human); in experiment [1]) were 5.91 nM and 110 nM, respectively.
Turning to `Cc1nc(N)nc2c1cc(-c1cncc(N)n1)c(=O)n2C1CCCC1`, the values for the IC50 (on PIK3CA (human); in experiment [1]) were 20 nM and 33.9 nM, respectively.
Turning to `Cc1nc(N)nc2c1cc(-c1cnc3[nH]ccc3c1)c(=O)n2CC1CCCO1` (stereo not drawn), the half-inhibitory concentration (IC50) was 5.4 nM at PIK3CA (human) and 36.6 nM in experiment [1].
Consider `COc1ncccc1-c1cc2c(C)nc(N)nc2n(C2CCCC2)c1=O`, for which the results for the IC50 (against PIK3CA (human); in experiment [1]) were 856 nM and 5480 nM, respectively.
Regarding `CNc1nc(C)c2cc(-c3cn[nH]c3)c(=O)n(CC3CCOC3)c2n1` (stereo not drawn), the results for the IC50 (against PIK3CA (human); in experiment [1]) were 6 nM and 22.1 nM, respectively.
Consider `COc1ncc(-c2cc3c(C)nc(N)nc3n([C@H]3CC[C@@H](OCCO)CC3)c2=O)cn1`, for which the IC50 is 5.31 nM against PIK3CA (human) and 15.3 nM in experiment [1].
For the compound `CNc1nc(C)c2cc(-c3cccc(OC)c3)c(=O)n(C3CCCC3)c2n1`, the 50% inhibitory concentration (IC50) turned out to be 244 nM at PIK3CA (human) and 669 nM in experiment [1].
The like results for `CCn1nccc1NC(=O)c1cc2c(C)nc(N)nc2n([C@H]2CC[C@H](O)CC2)c1=O` were, in that order, 1.3 nM and 50.5 nM.
In the same order, the values of `CNc1nc(C)c2cc(-c3cnn(CCO)c3)c(=O)n(C3CCCC3)c2n1` are 24 nM and 234 nM.
In the same order, the values of `COc1ncc(-c2cc3c(C)nc(N)nc3n(C(C)C)c2=O)cn1` are 2.2 nM and 49.3 nM.
With `COc1ccc(-c2cc3c(C)nc(N)nc3n([C@H]3CC[C@H](OC[C@@H](O)CO)CC3)c2=O)cn1`, the figures for the IC50 (against PIK3CA (human); in experiment [1]) were 6.82 nM and 13.2 nM, respectively.
Regarding `Cc1nc(N)nc2c1cc(Br)c(=O)n2[C@H]1CC[C@H](OCCO)CC1`, the figures for the IC50 (against PIK3CA (human); in experiment [1]) were 55.2 nM and 96.5 nM, respectively.
In the same order, the values of `CO[C@H]1CC[C@H](n2c(=O)c(Br)cc3c(C)nc(N)nc32)CC1` are 31 nM and 64 nM.
Regarding `CNc1nc(C)c2cc(-c3cnc(N)c(OC[C@H](C)N)n3)c(=O)n(C3CCCC3)c2n1`, the values for the half-inhibitory concentration (IC50) (against PIK3CA (human); in experiment [1]) were 400 nM and 2330 nM, respectively.
In the same order, the values of `Cc1nc(N)nc2c1cc(-c1ccc(Cl)nc1)c(=O)n2C1CCCC1` are 39.1 nM and 74.2 nM.
With `CNc1nc(C)c2cc(-c3ccc(O)c(OC)c3)c(=O)n(C3CCCC3)c2n1`, the results for the IC50 (against PIK3CA (human); in experiment [1]) were 1.57 nM and 3.82 nM, respectively.
In the same order, the values of `COc1ccc(-c2cc3c(C)nc(N)nc3n([C@@H]3CC[C@@H](O)C3)c2=O)cn1` are 4.6 nM and 87.6 nM.
The like results for `Cc1nc(N)nc2c1cc(Br)c(=O)n2C1CCOC1` (stereo not drawn) were, in that order, 230 nM and 1670 nM.
